Experimental data reported in US10195156B2, “Compounds and compositions for intracellular delivery of agents” (ModernaTX, Inc., priority 2015, dated 2019).

Legend:
[1] = Particle size and polydispersity index of nanoparticle compositions (Zetasizer Nano ZS); type: physicochemical
Experimental: A Zetasizer Nano ZS (Malvern Instruments Ltd, Malvern, Worcestershire, UK) can be used to determine the particle size, the polydispersity index (PDI) and the zeta potential of the nanoparticle compositions in 1×PBS in determining particle size and 15 mM PBS in determining zeta potential.

[2] = Encapsulation efficiency of RNA (QUANT-IT RIBOGREEN RNA assay); type: physicochemical; conditions: for encapsulation efficiency, rank within the named table (in words): comparison amongst compositions
Experimental: For nanoparticle compositions including an RNA, a QUANT-IT™ RIBOGREEN® RNA assay (Invitrogen Corporation Carlsbad, Calif.) can be used to evaluate the encapsulation of an RNA by the nanoparticle composition. The samples are diluted to a concentration of approximately 5 μg/mL in a TE buffer solution (10 mM Tris-HCl, 1 mM EDTA, pH 7.5). 50 μL of the diluted samples are transferred to a polystyrene 96 well plate and either 50 μL of TE buffer or 50 μL of a 2% Triton X-100 solution is added to the wells. The plate is incubated at a temperature of 37° C. for 15 minutes. The RIBOGREEN® reagent is diluted 1:100 in TE buffer, and 100 μL of this solution is added to each well. The fluorescence intensity can be measured using a fluorescence plate reader (Wallac Victor 1420 Multilablel Counter; Perkin Elmer, Waltham, Mass.) at an excitation wavelength of, for example, about 480 nm and an emission wavelength of, for example, about 520 nm. The fluorescence values of the reagent blank are subtracted from that of each of the samples and the percentage of free RNA is determined by dividing the fluorescence intensity of the intact sample (without addition of Triton X-100) by the fluorescence value of the disrupted sample (caused by the addition of Triton X-100).

[3] = pKa of nanoparticle compositions; type: physicochemical
[4] = system: luciferase (Luc) mRNA expression; test: Expression of Luc induced by sample formulations, whole-body bioluminescence after intravenous administration; type: in vivo; conditions: mice, i.v., 0.5 mg/kg
Experimental: In order to monitor how effectively various nanoparticle compositions deliver therapeutic and/or prophylactic agents to targeted cells, different nanoparticle compositions including a particular therapeutic and/or prophylactic agent (for example, a modified or naturally occurring RNA such as an mRNA) are prepared and administered to rodent populations. Mice are intravenously, intramuscularly, intraarterially, or intratumorally administered a single dose including a nanoparticle composition with a formulation such as those provided in Table 1. In some instances, mice may be made to inhale doses. Dose sizes may range from 0.001 mg/kg to 10 mg/kg, where 10 mg/kg describes a dose including 10 mg of a therapeutic and/or prophylactic agent in a nanoparticle composition for each 1 kg of body mass of the mouse. A control composition including PBS may also be employed.
Upon administration of nanoparticle compositions to mice, dose delivery profiles, dose responses, and toxicity of particular formulations and doses thereof can be measured by enzyme-linked immunosorbent assays (ELISA), bioluminescent imaging, or other methods. For nanoparticle compositions including mRNA, time courses of protein expression can also be evaluated. Samples collected from the rodents for evaluation may include blood, sera, and tissue (for example, muscle tissue from the site of an intramuscular injection and internal tissue); sample collection may involve sacrifice of the animals.
The efficacy of the nanoparticle compositions presented in Tables 1, 1a, 17-1, 19-1, 20-1 and 21-1 was evaluated with a bioluminescence study. Formulations were administered intravenously to mice (n=6) at a dosage of 0.5 mg/kg (mpk) and bioluminescence measured at 3, 6, and 24 hour time points. The standard MC3 formulation and a PBS control were evaluated for comparison.

[5] = system: modified luciferase expression; test: Expression of Luc in different organs (liver, lung, spleen, femur) 6 hours after intravenous administration; type: in vivo; conditions: i.v., 0.5 mpk
Experimental: The efficacy of the nanoparticle compositions presented in Tables 1, 1a, 17-1, 19-1, 20-1 and 21-1 was further evaluated by measuring the expression of modified luciferase in the liver, lung, spleen, and femur upon administration of a given composition. Formulations were administered intravenously to mice (n=3) at a dosage of 0.5 mpk and bioluminescence measured after 6 hours. The standard MC3 formulation and a PBS control were also tested.

IP-10 = test: Cytokine production induced by sample formulations: IP-10; type: in vivo; conditions: mice, i.v., 0.5 mpk, 6 hours, in pg/mL (unit assumed)
Source text: (§1) The introduction of foreign material into a mammalian body induces an innate immune response that promotes cytokine production. Such immune responses to, for example, nanoparticle compositions including therapeutic and/or prophylactic agents, are undesirable. The induction of certain cytokines is thus measured to evaluate the […] of nanoparticle compositions. The concentrations of various cytokines in mice upon intravenous administration of nanoparticle compositions presented in Tables 1, 1a, 17-1, 19-1, 20-1 and 21-1 at a dosage of 0.5 mpk was measured at 6 hours. The standard MC3 formulation and a PBS control were also tested.

IL-6 = test: Cytokine production induced by sample formulations: IL-6; type: in vivo; conditions: mice, i.v., 0.5 mpk, 6 hours
Source text: as §1

[6] = Table 1, * formulated with lipid:DSPC:Chol:PEG-DMG 50:10:38.5:1.5
[7] = Table 1, * lipid:DSPC:Chol:PEG-DMG 50:10:38.5:1.5
[8] = Table 1, rows without footnote mark
[9] = Table 20-1, rows without footnote mark

CCCCCCCCCCCCN(CCCCCCCCCCCC)CCN1CCN(C(=O)CN(CCCCCCCCCCCC)CCN(CCCCCCCCCCCC)CCCCCCCCCCCC)CC1 [Compound 2, 2-((2-(Didodecylamino)ethyl)(dodecyl)amino)-1-(4-(2-(didodecylamino)ethyl)piperazin-1-yl)ethan-1-one]
Size (nm) [1, 6]: 94.7 nm
PDI [1, 7]: 0.108
EE (%) [2, 7]: 96%
pKa [3, 7]: 6.39
Total Flux 3 hours ([4]; Table 2): 6.01E+09
Total Flux 6 hours ([4]; Table 2): 3.23E+09
Total Flux 24 hours ([4]; Table 2): 3.23E+09
Total Flux Liver ([5]; Table 3, mice): 3.33E+08
Total Flux Lung ([5]; Table 3, mice): 4.76E+05
Total Flux Spleen ([5]; Table 3, mice, spleen): 1.14E+07
IP-10 (IP-10; Table 4): 3365

CCCCCCCCCCCCN(CCCCCCCCCCCC)CCN(CCCCCCCCCCCC)CCN1CCN(C(=O)CN(CCCCCCCCCCCC)CCCCCCCCCCCC)CC1 [Compound 3, 2-(Didodecylamino)-1-(4-(2-((2-(didodecylamino)ethyl)(dodecyl)amino)ethyl)piperazin-1-yl)ethan-1-one]
PDI [1, 8]: 0.044
Size (nm) ([1]; Table 1, rows without footnote mark (lipid:DOPE:cholesterol:PEG-DMG 40:20:38.5:1.5, Luc mRNA; MC3 standard formulation)): 73.5 nm
EE (%) [2, 8]: 92.5%
Total Flux 3 hours ([4]; Table 2): 3.75E+08
Total Flux 6 hours ([4]; Table 2): 1.12E+09
Total Flux Liver ([5]; Table 3, mice): 1.36E+08
Total Flux Lung ([5]; Table 3, mice): 8.47E+05
Total Flux Spleen ([5]; Table 3, mice, spleen): 9.51E+05
IL-6 (IL-6; Table 4, in pg/mL (unit assumed)): 7
IL-6 induction, rank within the named table (in words) (IL-6): lowest IL-6 expression
IP-10 (IP-10; Table 4): 341

CCCCCCCC/C=C\CCCCCCCCN(CCO)CCCCCCCC/C=C\CCCCCCCC [Compound 17-8, 2-(Di((Z)-octadec-9-en-1-yl)amino)ethan-1-ol]
PDI ([1]; Table 17-1): 0.20
Size (nm) ([1]; Table 17-1): 86.4 nm
EE (%) ([2]; Table 17-1): 96.9%
encapsulation efficiency, rank within the named table (in words) [2]: comparable to that for MC3
pKa ([3]; Table 17-1): 6.16
Total Flux 3 hours ([4]; Table 17-2): 1.02E+09
Total Flux 6 hours ([4]; Table 17-2): 5.94E+08
Total Flux 24 hours ([4]; Table 17-2): 3.79E+07
total flux / Luc expression, rank within the named table (in words) ([4]; each time point): substantially higher flux than compositions including Compounds 17-2, 17-3, and 17-7
Total Flux Liver ([5]; Table 17-3, mice): 2.27E+08
Total Flux Lung ([5]; Table 17-3, mice): 6.11E+05
Total Flux Spleen ([5]; Table 17-3, mice, spleen): 4.25E+06
total flux in the liver, rank within the named table (in words) ([5]; mice): somewhat comparable to those including MC3
total flux in the spleen, rank within the named table (in words) ([5]; mice, spleen): highest
IP-10 (IP-10; Table 17-4): 135

CCCCCCCCCN(CCO)CCN(CCCCCCCCC)CCCCCCCCC [Compound 20-16, 2-((2-(Dinonylamino)ethyl)(nonyl)amino)ethan-1-ol]
PDI [1, 9]: 0.225
Size (nm) [1, 9]: 73.5 nm
EE (%) [2, 9]: 97.2%
pKa [3, 9]: 6.62
Total Flux 3 hours ([4]; Table 20-2): 7.88E+05
Total Flux 6 hours ([4]; Table 20-2): 6.25E+05
Total Flux 24 hours ([4]; Table 20-2): 2.16E+05
total flux after 24 hours, rank within the named table (in words) [4]: lowest
Total Flux Liver ([5]; Table 20-3, mice): 9.55E+04
Total Flux Lung ([5]; Table 20-3, mice): 1.44E+04
Total Flux Spleen ([5]; Table 20-3, mice, spleen): 6.57E+04
total flux in the liver, rank within the named table (in words) ([5]; mice): lowest
IP-10 (IP-10; Table 20-4, formula (20-I)): 395.7

CCCCCCCCCCCCN(CCCCCCCCCCCC)CCNCCO [Compound 20-19, 2-((2-(Didodecylamino)ethyl)amino)ethan-1-ol]
PDI [1, 9]: 0.145
Size (nm) [1, 9]: 74.9 nm
EE (%) [2, 9]: 99.5%
encapsulation efficiency, rank within the named table (in words) [2]: highest
pKa [3, 9]: 4.73
Total Flux 3 hours ([4]; Table 20-2): 5.37E+05
Total Flux 6 hours ([4]; Table 20-2): 7.60E+05
Total Flux 24 hours ([4]; Table 20-2): 6.08E+05
Total Flux Liver ([5]; Table 20-3, mice): 3.80E+05
Total Flux Lung ([5]; Table 20-3, mice): 1.96E+04
Total Flux Spleen ([5]; Table 20-3, mice, spleen): 2.74E+04
IP-10 (IP-10; Table 20-4, formula (20-I)): 127.2

CCCCCCCCCCCCN(CCCCCCCCCCCC)CCN(CCCCCCCCCCCC)CCN1CCNCC1 [Compound 37, N^1,N^1,N^2-Tridodecyl-N^2-(2-(piperazin-1-yl)ethyl)ethane-1,2-diamine]
Size (nm) [1, 6]: 86.6 nm
PDI [1, 7]: 0.107
EE (%) [2, 7]: 99.9%
encapsulation efficiency, rank within the named table (in words) [2]: highest
pKa [3, 7]: 6.45
Total Flux 3 hours ([4]; Table 2): 1.19E+07
Total Flux 6 hours ([4]; Table 2): 6.66E+06
Total Flux 24 hours ([4]; Table 2): 9.38E+05
total flux after 24 hours, rank within the named table (in words) [4]: lowest flux after 24 hours
Total Flux Liver ([5]; Table 3, mice): 1.92E+06
Total Flux Lung ([5]; Table 3, mice): 6.90E+05
Total Flux Spleen ([5]; Table 3, mice, spleen): 9.75E+05
IP-10 (IP-10; Table 4): 198
